Converted amounts (≈) assume the structure as drawn.
Legend:
peripheral leucocytes = experiment: Effect on the peripheral leucocytes number in Sarcoma 180 bearing mice; format: in vivo; details: Sarcoma 180 bearing ddy mice; intraperitoneal 24 hours after implantation; blood 4 days later
Experimental: (§1) The antitumour-activity and toxicity of various compounds of formula (I) were investigated as indicated below.
(4) Effect on the peripheral leucocytes number
Sarcoma 180 solid tumour cells (5×10^6) were subcutaneously implanted into the right arm pit of each mouse (body weight 20±2 g) of a group consisting of 5 male mice (ddy strain). 24 hours after implantation, a test compound was intraperitoneally administered to each animal. 4 days later, blood (each 0.02 ml) was collected from the suborbital plexus vein of each tumour-carrying animal. The collected sample of the blood was dispersed in 9.98 ml of Cell-Kit Seven solution. One drop of saponin solution was added to the sample to dissolve erythrocytes, and then a microcell counter was used to measure the number of leucocytes. On a graph paper, the number of leucocytes was indicated on the y-axis by an arithmetic scale and the dose of the test compound was indicated on the x-axis by a logarithmic scale. The relationship between the number of peripheral leucocytes and the dosage of the test compound was plotted and the dosage corresponding to 4000 peripheral leucocytes/mm^3 (about 1/2 the number of leucocytes of normal mice) was obtained. This value is denoted in Table 5 by WBC4000.

[1] = Solubility in 0.03M phosphate buffered solution; format: physicochemical; details: 0.03m phosphate buffer, aqueous buffer, pH 7.0, 23° C.
Experimental: The solubilities of Compound 5, Compound 14 and Compound 20 in 0.03M phosphate buffered solution (pH 7.0, 23° C.) were determined.

[2] = test system: Streptococcus faecalis ATCC 10541; experiment: Antibacterial activity, minimum growth inhibitory concentration by agar dilution method (SF); format: cell-based; details: Enterococcus faecalis, ATCC10541, pH 7, read-out: MIC, Streptococcus faecalis (SF)
Experimental: (§2) The various compounds of formula (I) of Examples 1-26 were tested for antibacterial activity against 6 microorganisms. […]. In this table, the following symbols are used:
SF: Streptococcus faecalis ATCC 10541

Bacillus subtilis 10707 = experiment: Antibacterial activity, minimum growth inhibitory concentration by agar dilution method (BS); format: cell-based; details: Bacillus subtilis, 10707, pH 7, read-out: MIC, Bacillus subtilis (BS)
Experimental: as §2
BS: Bacillus subtilis 10707

[3] = test system: Proteus vulgaris ATCC 6897; experiment: Antibacterial activity, minimum growth inhibitory concentration by agar dilution method (PV); format: cell-based; details: ATCC6897, pH 7, read-out: MIC, Proteus vulgaris (PV)
Experimental: as §2
PV: Proteus vulgaris ATCC 6897

[4] = test system: Shigella sonnei ATCC 9290; experiment: Antibacterial activity, minimum growth inhibitory concentration by agar dilution method (SS); format: cell-based; details: ATCC9290, pH 7, read-out: MIC, Shigella sonnei (SS)
Experimental: as §2
SS: Shigella sonnei ATCC 9290

Sarcoma 180 solid tumour = experiment: Anti-tumour activity against Sarcoma 180 solid tumour in mice; format: in vivo; details: Mus musculus, sc, 168 h; Sarcoma 180 s.c. in ddy mice; into tail vein 24 hours after implantation; volume at 7 days; read-out: ED50 (dose reducing tumour volume to 50% of control)
Experimental: as §1
(1) Effect against Sarcoma 180 solid tumour cells
5×10^6 cells of Sarcoma 180 solid tumour were intraperitoneally implanted into ddy mice. 7 days later, ascites cells were sampled. The cells were washed once with a sterilized physiological solution of sodium chloride and were used to prepare a cell suspension containing 5×10^7 cells per ml. On each occasion, 0.1 ml of the cell suspension was subcutaneously implanted into the right arm pit of a male mouse (ddy strain; body weight 20±2 g). The test compound was dissolved in a physiological solution of sodium chloride with or without addition of Tween 80 and was administered into the tail vein of each mouse of a group consisting of 5 mice at a dose of 0.1-0.2 ml, 24 hours after the implantation of the tumour cells.
The anti-tumour activity was determined in the following manner. 7 days after the implantation, the major axis (a) and the minor axis (b) of the tumour were measured to calculate a value of "a×b^2 /2" which corresponds to the volume of the tumour. The anti-tumour activity was expressed by the ratio of the volume of the tumours (T) of the group of animals administered with the test compound to the corresponding volume of tumours (c) of the untreated animals.
(2) Determination of ED50
(The amount needed for reducing the volume of Sarcoma 180 solid tumours in mice to 50% on the basis of the corresponding volume of Sarcoma solid tumours in control untreated animals). On graph paper, T/C (the ratio of the volume of tumours of treated and control animals) was indicated by an arithmetic scale on the longitudinal axis and the administered amount of the test compound was indicated by a logarithmic scale on the lateral axis.
The relationship between the dose and T/C was shown by a straight line determined by the method of least squares, from which a dose corresponding to T/C of 0.5 was obtained.

[5] = test system: Klebsiella pneumoniae ATCC 10031; experiment: microbe, parasite or virus in culture; format: cell-based; details: ATCC10031, pH 7, read-out: MIC, Klebsiella pneumoniae (KP)
Text: In this table, the following symbols are used:
KP: Klebsiella pneumoniae ATCC 10031

[6] = Acute toxicity in mice (LD50, Behrens Kerber's method); details: mouse, in vivo, ip; ddy mice, single intraperitoneal administration, 14 days observation
Experimental: as §1
Each animal of the test group consisting of 5 ddy mice was administered intraperitoneally once with a test compound. […] The LD50 was determined by Behrens Kerber's method.

[7] = test system: Staphylococcus aureus ATCC 6538P; experiment: Antibacterial activity, minimum growth inhibitory concentration by agar dilution method (SA); format: cell-based; details: ATCC6538P, pH 7, read-out: MIC, Staphylococcus aureus (SA)
Experimental: as §2
SA: Staphylococcus aureus ATCC 6538P

[8] = Stability of the product as observed on isolation; format: physicochemical; details: in words; yield not constant
Experimental: To this solution is added dropwise 1 ml of methanol containing 23 mg of L-cysteine methyl ester hydrochloride and 50 μl of triethylamine. About 2 minutes later, the solvent is removed from the mixture by distillation under reduced pressure. Then, a similar treatment to that described in Example 1 is effected to obtain a small amount of Compound 16 as a grayish green powder. The yield of the resultant compound is not constant because of its unstability.
The yield is not constant because of unstability of the product.

Row | SMILES | WBC4000 (dosage corresponding to 4000 peripheral leucocytes/mm^3) (peripheral leucocytes) [mg/kg] | solubility [1] [mg/mL] | MIC [2] [µg/mL] | MIC (Bacillus subtilis 10707) [µg/mL] | MIC [3] [µg/mL] | MIC [4] [µg/mL] | ED50 (Sarcoma 180 solid tumour) [mg/kg] | MIC [5] [µg/mL] | LD50 at 336 h [6] [mg/kg] | MIC [7] [µg/mL] | stability of the resultant compound [8]
1 | CO[C@@]12[C@H](COC(N)=O)C3=C(C(=O)C(C)=C(NCCSSC[C@H](N)C(=O)O)C3=O)N1C[C@@H]1N[C@@H]12 [Compound 14, 7-N-[2-[(L-Cystein-S-yl)thio]ethyl]mitomycin C] | 26.9 | > 100 | 0.31 (≈ 0.604 µM) | 0.16 (≈ 0.312 µM) | 5 (≈ 9.74 µM) | > 20 | 15.4 | 0.63 (≈ 1.23 µM) | 30 | 0.31 (≈ 0.604 µM) | 
2 | COC(=O)[C@@H](N)CSSCCNC1=C(C)C(=O)C2=C(C1=O)[C@@H](COC(N)=O)[C@@]1(OC)[C@H]3N[C@H]3CN21 [Compound 16, 7-N-[2-[(L-1-Methoxycarbonylcysteamin-S-yl)thio]ethyl]mitomycin C] |  |  | 0.39 (≈ 0.739 µM) | < 0.02 | 1.6 (≈ 3.03 µM) | 50 (≈ 94.8 µM) |  | 0.2 (≈ 0.379 µM) |  | 0.2 (≈ 0.379 µM) | unstability
3 | CCOC(=O)[C@@H](N)CSSCCNC1=C(C)C(=O)C2=C(C1=O)[C@@H](COC(N)=O)[C@@]1(OC)[C@H]3N[C@H]3CN21 [Compound 17] |  |  | 0.2 (≈ 0.369 µM) | < 0.02 | 1.6 (≈ 2.95 µM) | 25 (≈ 46.2 µM) |  | 0.2 (≈ 0.369 µM) |  | 0.2 (≈ 0.369 µM) | unstability

Reference: patent US4691024A, “New mitomycin derivatives, preparation thereof and pharmaceutical compositions containing them” (priority 1984, dated 1987)
